According to publication PMC4060102, “Improved Histone Deacetylase Inhibitors as Therapeutics for the Neurodegenerative Disease Friedreich's Ataxia: A New Synthetic Route” (Pharmaceuticals, 2011):

Tests used:
[1] = tested on: FXN gene transcription in primary lymphocytes from a FRDA patient; assay: Frataxin mRNA assay (quantitative RT-PCR); format: cell-based, human; settings: 10 μM compound, 48 h, primary lymphocytes from FRDA patient donor blood, normalized to DMSO control
Protocol: In general, the activity of a compound against HDAC3 is related to its ability to increase FXN gene transcription. Compounds click-1 and -2 were assayed for their ability to increase transcription of the FXN gene in primary lymphocytes from a FRDA patient, as previously described.
Quantitative RT-PCR was used to estimate FXN mRNA levels after treatment with 10 μM compound for 48 h, and values were normalized to the level of FXN mRNA observed for a DMSO vehicle control.
Figure 3 Click-derived HDAC inhibitors induce frataxin gene expression in primary lymphocytes isolated from FRDA patient donor blood samples, compared to a standard pimelic o-aminobenzamide (109). Concentration of each compound is 10 μM.

in vivo = settings: rat, 5 mg/kg
Hct116 cells = assay: Cytotoxicity, antiproliferation assay; format: cell-based; settings: for ratio cytotoxicity/DAC: Hct116 antiproliferation IC50 / in-cell DAC IC50
[2] = Cytotoxicity, antiproliferation assay; format: cell-based; settings: human, Hct116 cells
recombinant HDAC2 = recombinant HDAC2 (Homo sapiens, UniProt Q92769); assay: HDAC enzyme inhibition assay (Fluor-de-Lys), HDAC2
HDAC3/NcoR2 = HDAC3/NcoR2 (Homo sapiens, UniProt O15379); assay: HDAC enzyme inhibition assay (Fluor-de-Lys), HDAC3; settings: for selectivity for HDAC3 over HDAC1: ratio of IC50 values HDAC1/HDAC3
[3] = Acid stability determination; format: physicochemical; settings: pH = 2, 50 °C; for half-life at 100 µM: 0.01 M HCl in deionized water, read-out: t1/2 in acidic conditions (converted)
Protocol: Immediately after mixing, an aliquot (100 μL) was sampled and analyzed by HPLC/UV. The area under the compound peak was determined and used as the time zero reference point. […] These were analyzed by the same HPLC/UV method and the area of the peak corresponding to the test compound was measured. Percent remaining at a given time point was then calculated as the ratio of the area under the peak after incubation to that at time zero times 100.

recombinant HDAC1 = recombinant HDAC1 (Homo sapiens, UniProt Q13547); assay: HDAC enzyme inhibition assay (Fluor-de-Lys), HDAC1
[4] = tested on: GM15850 cells (FRDA lymphoblastoid cell line); assay: In-cell deacetylase inhibition assay (DAC assay); format: cell-based, human; settings: 4 h incubation
Text: Compound dilutions were made in 100% DMSO followed by parallel dilution in media with 2% DMSO. […] The final concentration of DMSO in each well was 0.2%.

[5] = Brain penetration in mouse; format: in vivo; settings: brain and plasma
[6] = Compound stability (method not described); format: physicochemical; settings: conditions not stated
Text: All three azides 5, 8 and 16 were subjected to click chemistry with common intermediate 3 to give the corresponding triazole products click-1, click-2 and click-3 (Scheme 5). Each compound was characterized by ^1H-, ^13C-NMR and mass spectrometry.

HDAC3/NcoR2, sequence (O15379 whole entry): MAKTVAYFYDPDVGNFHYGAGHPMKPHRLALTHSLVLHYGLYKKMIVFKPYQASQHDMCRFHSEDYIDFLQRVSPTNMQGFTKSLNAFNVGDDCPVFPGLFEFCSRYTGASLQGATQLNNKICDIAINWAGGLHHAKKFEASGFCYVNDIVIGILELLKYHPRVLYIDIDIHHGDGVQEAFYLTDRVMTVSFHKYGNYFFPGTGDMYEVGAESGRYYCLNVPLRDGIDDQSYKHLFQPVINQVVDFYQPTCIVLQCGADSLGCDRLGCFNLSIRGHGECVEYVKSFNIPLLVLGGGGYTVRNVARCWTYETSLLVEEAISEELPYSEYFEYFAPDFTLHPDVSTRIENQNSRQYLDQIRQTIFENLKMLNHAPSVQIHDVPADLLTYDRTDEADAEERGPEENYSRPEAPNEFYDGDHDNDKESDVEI
HDAC3/NcoR2, sequence (Q9Y618 395-489 partner limits assumed): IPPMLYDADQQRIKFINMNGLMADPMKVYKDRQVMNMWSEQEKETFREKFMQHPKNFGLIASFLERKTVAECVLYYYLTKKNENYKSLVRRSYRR
recombinant HDAC2, sequence (Q92769 whole entry): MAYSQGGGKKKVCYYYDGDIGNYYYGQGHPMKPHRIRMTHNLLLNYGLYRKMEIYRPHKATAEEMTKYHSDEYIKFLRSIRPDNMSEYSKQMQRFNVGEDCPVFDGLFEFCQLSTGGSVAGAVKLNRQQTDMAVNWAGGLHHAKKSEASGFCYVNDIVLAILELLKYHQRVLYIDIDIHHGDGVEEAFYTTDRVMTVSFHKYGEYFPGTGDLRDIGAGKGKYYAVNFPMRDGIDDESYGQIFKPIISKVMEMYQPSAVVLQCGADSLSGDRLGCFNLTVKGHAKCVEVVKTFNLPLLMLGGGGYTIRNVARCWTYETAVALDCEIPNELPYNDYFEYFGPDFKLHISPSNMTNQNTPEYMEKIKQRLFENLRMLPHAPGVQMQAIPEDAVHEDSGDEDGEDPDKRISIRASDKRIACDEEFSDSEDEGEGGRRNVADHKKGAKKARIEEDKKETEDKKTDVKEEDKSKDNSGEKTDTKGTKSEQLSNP
recombinant HDAC1, sequence (Q13547 whole entry): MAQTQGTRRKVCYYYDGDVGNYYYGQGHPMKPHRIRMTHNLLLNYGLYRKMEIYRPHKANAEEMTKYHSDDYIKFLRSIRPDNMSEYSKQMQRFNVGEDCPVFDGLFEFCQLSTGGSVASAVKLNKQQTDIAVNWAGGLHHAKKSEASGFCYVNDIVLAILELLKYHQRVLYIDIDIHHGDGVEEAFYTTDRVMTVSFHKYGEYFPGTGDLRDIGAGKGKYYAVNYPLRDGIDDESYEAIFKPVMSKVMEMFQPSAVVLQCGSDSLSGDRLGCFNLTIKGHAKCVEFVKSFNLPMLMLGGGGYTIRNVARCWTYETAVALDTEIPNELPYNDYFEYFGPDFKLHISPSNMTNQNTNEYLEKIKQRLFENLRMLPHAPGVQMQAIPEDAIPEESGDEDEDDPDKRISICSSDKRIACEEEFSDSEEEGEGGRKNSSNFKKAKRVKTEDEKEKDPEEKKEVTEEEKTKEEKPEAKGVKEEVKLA

Nc1ccccc1NC(=O)/C=C/c1cn(CC=Cc2ccccc2)nn1 [Click-1, (E)-N-(2-Aminophenyl)-3-(1-cinnamyl-1H-1,2,3-triazol-4-yl)acrylamide]
promoting transcription of the silenced FXN gene (FXN mRNA) [1]: highly active | Kp (in vivo; brain and plasma, intravenous): 0.33 | Cmax (in vivo; brain, iv): 800 ng/g | Tmax (in vivo; brain, iv): 5 min | ratio cytotoxicity/DAC (Hct116 cells): 4.1 | IC50 [2]: 23000 nM | IC50 (recombinant HDAC2): 477 nM | IC50 (HDAC3/NcoR2): 28 nM | selectivity for HDAC3 over HDAC1 (HDAC3/NcoR2): 2.4 fold | half-life at 100 µM [3]: 33 h | improvement of acid half-life relative to HDACi 109 [3]: 5.5 fold | IC50 (recombinant HDAC1): 66 nM | IC50 ([4]; Homo sapiens): 5600 nM

Nc1ccccc1NC(=O)/C=C/c1cn(C/C=C/c2ccc3cc[nH]c3c2)nn1 [Click-2, (E)-3-(1-((E)-3-(1H-Indol-6-yl)allyl)-1H-1,2,3-triazol-4-yl)-N-(2-aminophenyl)acrylamide]
Kp [5]: 0.03 | promoting transcription of the silenced FXN gene (FXN mRNA) [1]: highly active | ratio cytotoxicity/DAC (Hct116 cells): 5.3 | IC50 [2]: 27000 nM | IC50 (recombinant HDAC2): 466 nM | IC50 (HDAC3/NcoR2): 39 nM | selectivity for HDAC3 over HDAC1 (HDAC3/NcoR2): 1.2 fold | half-life at 100 µM [3]: 24 h | improvement of acid half-life relative to HDACi 109 [3]: 4 fold | IC50 (recombinant HDAC1): 46 nM | IC50 ([4]; Homo sapiens): 5100 nM

Nc1ccccc1NC(=O)/C=C/c1cn(CCOc2ccc3cc[nH]c3c2)nn1 [Click-3, (E)-3-(1-(2-((1H-Indol-6-yl)oxy)ethyl)-1H-1,2,3-triazol-4-yl)-N-(2-aminophenyl)acrylamide]
stability [6]: poor stability | IC50 ([4]; Homo sapiens): 29400 nM

Nc1ccccc1NC(=O)c1ccc(CNC(=O)OCc2cccnc2)cc1 [MS-275, reference compound]
IC50 (Hct116 cells; Hct116 cells): 1000 nM | IC50 [4]: 1900 nM

Cc1ccc(C(=O)NCCCCCC(=O)Nc2ccccc2N)cc1 [compound 109]
half-life at 100 µM [3]: 6 h
